In patent publication US8013156B2 (Exelixis, Inc., priority 2003, dated 2011):

target: Tie-2 (Homo sapiens, UniProt Q02763); assay: Tie-2 tyrosine kinase activity assay (luciferase/luciferin ATP consumption with pEY substrate, or 33P-ATP incorporation); assay type: biochemical; details: human enzyme Tie-2
Outline: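 Values are IC50 categories (A <50 nM to D ≥10,000 nM), with Ki obtainable by fitting rates to a tight-binding model. Assay formats: 33P-ATP phosphate transfer to adsorbed generic substrate counted by scintillation, or luciferase-detected ATP depletion using pEY.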

Tie-2, sequence (Q02763 23-1124): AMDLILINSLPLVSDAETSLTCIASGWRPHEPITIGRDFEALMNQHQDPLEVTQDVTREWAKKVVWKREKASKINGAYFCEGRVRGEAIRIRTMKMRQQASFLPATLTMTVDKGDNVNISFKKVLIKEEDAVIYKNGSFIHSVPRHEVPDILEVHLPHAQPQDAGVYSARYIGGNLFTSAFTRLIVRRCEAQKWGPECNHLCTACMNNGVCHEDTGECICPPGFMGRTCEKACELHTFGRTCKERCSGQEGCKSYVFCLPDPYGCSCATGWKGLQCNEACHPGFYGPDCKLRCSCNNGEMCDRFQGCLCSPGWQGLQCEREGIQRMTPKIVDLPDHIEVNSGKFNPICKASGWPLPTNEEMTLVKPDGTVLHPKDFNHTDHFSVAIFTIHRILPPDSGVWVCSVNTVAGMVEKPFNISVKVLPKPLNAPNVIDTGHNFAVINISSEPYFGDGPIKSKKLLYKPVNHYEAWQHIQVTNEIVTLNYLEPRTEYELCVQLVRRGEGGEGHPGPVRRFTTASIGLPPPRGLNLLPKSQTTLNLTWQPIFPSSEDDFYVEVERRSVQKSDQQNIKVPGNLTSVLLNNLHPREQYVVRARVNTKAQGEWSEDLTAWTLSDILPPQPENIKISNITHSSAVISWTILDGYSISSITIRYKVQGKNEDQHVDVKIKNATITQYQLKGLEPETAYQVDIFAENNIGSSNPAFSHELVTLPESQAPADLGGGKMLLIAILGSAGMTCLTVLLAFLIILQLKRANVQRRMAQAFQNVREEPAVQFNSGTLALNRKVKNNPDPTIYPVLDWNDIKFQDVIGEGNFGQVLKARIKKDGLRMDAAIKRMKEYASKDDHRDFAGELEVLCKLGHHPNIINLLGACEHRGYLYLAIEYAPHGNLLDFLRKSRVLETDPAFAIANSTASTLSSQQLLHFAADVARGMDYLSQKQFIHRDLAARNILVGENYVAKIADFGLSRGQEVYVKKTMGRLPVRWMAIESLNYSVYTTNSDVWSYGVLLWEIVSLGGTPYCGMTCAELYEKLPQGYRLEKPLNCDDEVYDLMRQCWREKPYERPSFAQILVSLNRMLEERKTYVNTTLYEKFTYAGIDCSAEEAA

SMILES	IC50
Nc1nccc(COc2cccnc2N2CCN(C(=O)Nc3cccc(OC(F)(F)F)c3)CC2)n1 [Example 168, 4-(3-{[(2-aminopyrimidin-4-yl)methyl]oxy}pyridin-2-yl)-N-{3-[(trifluoromethyl)oxy]phenyl}piperazine-1-carboxamide]	< 50 nM
C[C@H]1CN(c2nccnc2OCc2ccncc2)CCN1C(=O)Nc1cccc(C(F)(F)F)c1 [Example 81, (2S)-2-methyl-4-{3-[(pyridin-4-ylmethyl)oxy]pyrazin-2-yl}-N-[3-(trifluoromethyl)phenyl]piperazine-1-carboxamide]	< 50 nM
O=C(Nc1cccc(C(F)(F)F)c1)NC1CCN(c2nccnc2OCc2ccncc2)C1 (stereo not shown) [Example 66, N-(1-{3-[(pyridin-4-ylmethyl)oxy]pyrazin-2-yl}pyrrolidin-3-yl)-N′-[3-(trifluoromethyl)phenyl]urea]	50 to 1000 nM
CCc1cc(Br)cc(NC(=O)N2CCN(c3ncccc3OCc3ccnc(N)n3)CC2)c1 [Example 181, 4-(3-{[(2-aminopyrimidin-4-yl)methyl]oxy}pyridin-2-yl)-N-(3-bromo-5-ethylphenyl)piperazine-1-carboxamide]	< 50 nM
CCc1cc(NC(=O)N2CCN(c3ccccc3OCc3ccnc(N)n3)CC2)cc(C(F)(F)F)c1 [Example 277, 4-(2-{[(2-aminopyrimidin-4-yl)methyl]oxy}phenyl)-N-[3-ethyl-5-(trifluoromethyl)phenyl]piperazine-1-carboxamide]	< 50 nM
CC(=O)N1CCN(c2ncccc2OCc2ccnc(N)n2)CC1 [Example 207, 4-({[2-(4-acetylpiperazin-1-yl)pyridin-3-yl]oxy}methyl)pyrimidin-2-amine]	≥ 10000 nM
CCNC(=O)N1CCN(c2ncccc2OCc2ccnc(N)n2)CC1 [Example 205, 4-(3-{[(2-aminopyrimidin-4-yl)methyl]oxy}pyridin-2-yl)-N-ethylpiperazine-1-carboxamide]	≥ 10000 nM
CCc1cccc(NC(=O)N2CCN(c3ncccc3OCc3ccnc(NC(=O)CN4CCN(C)CC4)c3)CC2)c1 [Example 171, N-(3-ethylphenyl)-4-(3-{[(2-{[(4-methylpiperazin-1-yl)acetyl]amino}pyridin-4-yl)methyl]oxy}pyridin-2-yl)piperazine-1-carboxamide]	< 50 nM
Nc1nccc(COc2cccnc2N2CCN(C(=O)N3CCCc4ccccc43)CC2)n1 [Example 219, 4-[({2-[4-(3,4-dihydroquinolin-1(2H)-ylcarbonyl)piperazin-1-yl]pyridin-3-yl}oxy)methyl]pyrimidin-2-amine]	≥ 10000 nM
CCc1cccc(NC(=O)N2CCN(c3nccnc3OCc3ccncc3)CC2C)c1 (stereo not shown) [Example 93, N-(3-ethylphenyl)-2-methyl-4-{3-[(pyridin-4-ylmethyl)oxy]pyrazin-2-yl}piperazine-1-carboxamide]	< 50 nM
CN1CCN(CC(=O)Nc2cc(COc3cccnc3N3CCN(C(=O)Nc4cc(F)cc(C(F)(F)F)c4)CC3)ccn2)CC1 [Example 212, N-[3-fluoro-5-(trifluoromethyl)phenyl]-4-(3-{[(2-{[(4-methylpiperazin-1-yl)acetyl]amino}pyridin-4-yl)methyl]oxy}pyridin-2-yl)piperazine-1-carboxamide]	< 50 nM
CCc1cc(NC(=O)N2CCN(c3ncccc3OCc3ccnc(N)n3)CC2)ccc1F [Example 176, 4-(3-{[(2-aminopyrimidin-4-yl)methyl]oxy}pyridin-2-yl)-N-(3-ethyl-4-fluorophenyl)piperazine-1-carboxamide]	< 50 nM
CC1CN(c2nccnc2OCc2ccncc2)C(C)CN1C(=O)Nc1cc(C(F)(F)F)cc(C(F)(F)F)c1 (stereo not shown) [Example 78, N-[3,5-bis(trifluoromethyl)phenyl]-2,5-dimethyl-4-{3-[(pyridin-4-ylmethyl)oxy]pyrazin-2-yl}piperazine-1-carboxamide]	< 50 nM
Nc1cc(COc2nsnc2N2CCNCC2)ccn1 [Example 102, 4-{[(4-piperazin-1-yl-1,2,5-thiadiazol-3-yl)oxy]methyl}pyridin-2-amine]	≥ 10000 nM
CN1CCN(CC(=O)Nc2cc(COc3cccnc3N3CCN(C(=O)Nc4cc(Cl)cc(Cl)c4)CC3)ccn2)CC1 [Example 213, N-(3,5-dichlorophenyl)-4-(3-{[(2-{[(4-methylpiperazin-1-yl)acetyl]amino}pyridin-4-yl)methyl]oxy}pyridin-2-yl)piperazine-1-carboxamide]	< 50 nM

Second part, the compound after the results:

IC50	SMILES
50 to 1000 nM	O=C(Nc1cc(C(F)(F)F)cc(C(F)(F)F)c1)C1CCN(c2nsnc2OCc2ccncc2)CC1 [Example 36, N-[3,5-bis(trifluoromethyl)phenyl]-1-{4-[(pyridin-4-ylmethyl)oxy]-1,2,5-thiadiazol-3-yl}piperidine-4-carboxamide]
< 50 nM	CCc1cc(NC(=O)N2CCN(c3nsnc3OCc3ccnc(N)n3)CC2)cc(C(F)(F)F)c1 [Example 260, 4-(4-{[(2-aminopyrimidin-4-yl)methyl]oxy}-1,2,5-thiadiazol-3-yl)-N-[3-ethyl-5-(trifluoromethyl)phenyl]piperazine-1-carboxamide]
50 to 1000 nM	CCCNc1cc(COc2nsnc2N2CCN(C(=O)Nc3cc(C(F)(F)F)cc(C(F)(F)F)c3)CC2)ccn1 [Example 107, N-[3,5-bis(trifluoromethyl)phenyl]-4-[4-({[2-(propylamino)pyridin-4-yl]methyl}oxy)-1,2,5-thiadiazol-3-yl]piperazine-1-carboxamide]
< 50 nM	CC(C)(C)OC(=O)Nc1cc(COc2nsnc2N2CCN(C(=O)Nc3cc(C(F)(F)F)cc(C(F)(F)F)c3)CC2)ccn1 [Example 100, 1,1-dimethylethyl {4-[({4-[4-({[3,5-bis(trifluoromethyl)phenyl]amino}carbonyl)piperazin-1-yl]-1,2,5-thiadiazol-3-yl}oxy)methyl]pyridin-2-yl}carbamate]
< 50 nM	CC1CN(C(=O)Nc2cc(C(F)(F)F)cc(C(F)(F)F)c2)CCN1c1nccnc1OCc1ccncc1 (stereo not shown) [Example 70, N-[3,5-bis(trifluoromethyl)phenyl]-3-methyl-4-{3-[(pyridin-4-ylmethyl)oxy]pyrazin-2-yl}piperazine-1-carboxamide]
< 50 nM	CN(C)CC(=O)Nc1cc(COc2nsnc2N2CCN(C(=O)Nc3cc(C(F)(F)F)cc(C(F)(F)F)c3)CC2)ccn1 [Example 150, N-[3,5-bis(trifluoromethyl)phenyl]-4-{4-[({2-[(N,N-dimethylglycyl)amino]pyridin-4-yl}methyl)oxy]-1,2,5-thiadiazol-3-yl}piperazine-1-carboxamide]
< 50 nM	CN1CCN(CC(=O)Nc2cc(COc3nsnc3N3CCN(C(=O)Nc4cc(C(F)(F)F)cc(C(F)(F)F)c4)CC3)ccn2)CC1 [Example 155, N-[3,5-bis(trifluoromethyl)phenyl]-4-(4-{[(2-{[(4-methylpiperazin-1-yl)acetyl]amino}pyridin-4-yl)methyl]oxy}-1,2,5-thiadiazol-3-yl)piperazine-1-carboxamide]
50 to 1000 nM	CCCCNc1cc(COc2nsnc2N2CCN(C(=O)Nc3cc(C(F)(F)F)cc(C(F)(F)F)c3)CC2)ccn1 [Example 114, N-[3,5-bis(trifluoromethyl)phenyl]-4-[4-({[2-(butylamino)pyridin-4-yl]methyl}oxy)-1,2,5-thiadiazol-3-yl]piperazine-1-carboxamide]
< 50 nM	Nc1nccc(COc2ccccc2N2CCN(C(=O)Nc3cc(C(F)(F)F)cc(C(F)(F)F)c3)CC2)n1 [Example 255, 4-(2-{[(2-aminopyrimidin-4-yl)methyl]oxy}phenyl)-N-[3,5-bis(trifluoromethyl)phenyl]piperazine-1-carboxamide]
< 50 nM	COC(=O)Nc1cc(COc2nsnc2N2CCN(C(=O)Nc3cc(C(F)(F)F)cc(C(F)(F)F)c3)CC2)ccn1 [Example 101, methyl {4-[({4-[4-({[3,5-bis(trifluoromethyl)phenyl]amino}carbonyl)piperazin-1-yl]-1,2,5-thiadiazol-3-yl}oxy)methyl]pyridin-2-yl}carbamate]
< 50 nM	CCN(CC)CCOC(=O)Nc1cc(COc2nsnc2N2CCN(C(=O)Nc3cc(C(F)(F)F)cc(C(F)(F)F)c3)CC2)ccn1 [Example 160, 2-(diethylamino)ethyl {4-[({4-[4-({[3,5-bis(trifluoromethyl)phenyl]amino}carbonyl)piperazin-1-yl]-1,2,5-thiadiazol-3-yl}oxy)methyl]pyridin-2-yl}carbamate]
< 50 nM	O=C(CN1CCOCC1)Nc1cc(COc2nsnc2N2CCN(C(=O)Nc3cc(C(F)(F)F)cc(C(F)(F)F)c3)CC2)ccn1 [Example 151, N-[3,5-bis(trifluoromethyl)phenyl]-4-{4-[({2-[(morpholin-4-ylacetyl)amino]pyridin-4-yl}methyl)oxy]-1,2,5-thiadiazol-3-yl}piperazine-1-carboxamide]
1000 to 10000 nM	O=C(Nc1cc(C(F)(F)F)cc(C(F)(F)F)c1)Nc1cc(COc2nsnc2N2CCN(C(=O)Nc3cc(C(F)(F)F)cc(C(F)(F)F)c3)CC2)ccn1 [Example 130, N-[3,5-bis(trifluoromethyl)phenyl]-4-{4-[({2-[({[3,5-bis(trifluoromethyl)phenyl]amino}carbonyl)amino]pyridin-4-yl}methyl)oxy]-1,2,5-thiadiazol-3-yl}piperazine-1-carboxamide]
< 50 nM	O=C(Nc1cc(C(F)(F)F)cc(C(F)(F)F)c1)N1CCN(c2nsnc2OCc2ccnc(Nc3ccccc3)n2)CC1 [Example 118, N-[3,5-bis(trifluoromethyl)phenyl]-4-[4-({[2-(phenylamino)pyrimidin-4-yl]methyl}oxy)-1,2,5-thiadiazol-3-yl]piperazine-1-carboxamide]
< 50 nM	CC(=O)Nc1cc(COc2nsnc2N2CCN(C(=O)Nc3cc(C(F)(F)F)cc(C(F)(F)F)c3)CC2)ccn1 [Example 129, 4-[4-({[2-(acetylamino)pyridin-4-yl]methyl}oxy)-1,2,5-thiadiazol-3-yl]-N-[3,5-bis(trifluoromethyl)phenyl]piperazine-1-carboxamide]
50 to 1000 nM	C[C@H]1CN(c2nsnc2OCc2ccncc2)CCN1C(=O)Nc1cc(C(F)(F)F)cc(C(F)(F)F)c1 [Example 57, (2S)-N-[3,5-bis(trifluoromethyl)phenyl]-2-methyl-4-{4-[(pyridin-4-ylmethyl)oxy]-1,2,5-thiadiazol-3-yl}piperazine-1-carboxamide]
